{"source": "ChEMBL document CHEMBL3638656", "about": "“Trifluoromethyl-oxadiazole derivatives and their use in the treatment of disease” (2015)", "target": "Histone deacetylase 4 (Homo sapiens, UniProt P56524)", "sequence (P56524 whole entry, the tested form may be a part)": "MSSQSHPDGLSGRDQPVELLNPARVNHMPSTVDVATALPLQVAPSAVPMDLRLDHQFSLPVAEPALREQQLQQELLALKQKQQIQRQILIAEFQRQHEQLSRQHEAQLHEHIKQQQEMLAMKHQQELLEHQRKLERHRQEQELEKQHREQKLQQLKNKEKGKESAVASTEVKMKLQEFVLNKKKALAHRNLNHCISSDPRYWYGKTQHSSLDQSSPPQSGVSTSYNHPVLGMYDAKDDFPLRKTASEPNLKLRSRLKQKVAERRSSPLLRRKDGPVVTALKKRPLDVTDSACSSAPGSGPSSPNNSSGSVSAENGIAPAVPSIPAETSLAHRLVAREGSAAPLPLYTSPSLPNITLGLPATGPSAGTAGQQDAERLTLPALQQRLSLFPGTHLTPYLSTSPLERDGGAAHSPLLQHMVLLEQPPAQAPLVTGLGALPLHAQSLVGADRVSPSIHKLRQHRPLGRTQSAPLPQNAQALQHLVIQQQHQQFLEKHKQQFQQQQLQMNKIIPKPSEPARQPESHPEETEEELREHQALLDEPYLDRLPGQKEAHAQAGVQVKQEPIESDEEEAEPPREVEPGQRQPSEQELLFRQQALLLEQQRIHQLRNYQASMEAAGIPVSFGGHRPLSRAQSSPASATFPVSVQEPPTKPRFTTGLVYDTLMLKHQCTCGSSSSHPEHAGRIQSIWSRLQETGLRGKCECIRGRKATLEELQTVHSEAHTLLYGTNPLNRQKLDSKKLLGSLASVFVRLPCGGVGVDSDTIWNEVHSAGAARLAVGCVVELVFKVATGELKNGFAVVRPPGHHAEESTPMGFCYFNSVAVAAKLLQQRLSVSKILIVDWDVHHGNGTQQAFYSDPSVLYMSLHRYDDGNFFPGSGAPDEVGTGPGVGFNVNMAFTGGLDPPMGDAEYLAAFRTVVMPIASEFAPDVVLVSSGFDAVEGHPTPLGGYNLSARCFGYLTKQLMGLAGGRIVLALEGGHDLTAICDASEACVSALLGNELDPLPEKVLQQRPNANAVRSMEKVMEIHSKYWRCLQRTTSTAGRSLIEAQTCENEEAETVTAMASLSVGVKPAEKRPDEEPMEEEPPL", "assay": "Inhibition Assay: Human recombinant HDAC4 was expressed in full length form (aa 2-1084) in Sf9 insect cells (obtained from ATCC) using baculovirus generated with Bac-to-Bac system (Invitrogen). Test compounds were serially diluted to reach final test concentrations from 0.003 uM to 100 uM. HDAC4 and test compounds were incubated in 25 mM Tris buffer pH 8.0 containing 137 mM NaCl, 2.7 mM KCl, 1 mM MgCl2 and 0.05% (w/v) bovine serum albumine for 2 hours at room temperature in presence of 10 uM of acetyl-Gly-Ala-Lys(E-trifluoroacetyl)-AMC (AMC=7-amino-4-methyl coumarin) in a final volume of 200 ul. Control wells with HDAC4 only (positive control) and without HDAC4 (negative control) were included on the microplate. Bovine trypsin (10 ul of a 0.4 mg/ml solution) was added and the plate incubated for additional 15 minutes at room temperature. The plate was placed in a fluorescence microplate reader, and read at an excitation wavelength of 360 nm and an emission wavelength of 450 nm.", "data": [{"smiles": "CCN(C)C[C@@H](C)NC(=O)c1ccc(-c2noc(C(F)(F)F)n2)cc1F", "values": [{"measurement": "IC50", "result": 72, "unit": "nM"}]}]}
